Each structure is given as a SMILES string.

One assay relates to pancreatic NTX tumors. In words: Chemoresistance of tumor cell subpopulations in mice bearing pancreatic NTX tumors.
Another assay has as its system colorectal NTX tumors. In words: Chemoresistance of tumor cell subpopulations in mice bearing colorectal NTX tumors. It is filed as in vivo. The following applies: 15 mg/kg twice weekly. As to the method: To assess chemoresistance of tumor cell subpopulations, in vivo cohorts of mice bearing NTX colorectal tumors were randomized into two groups, such that the average tumor volume for each group was roughly equal. The groups were then treated twice weekly with either 15 mg/kg irinotecan or an equivalent volume of vehicle buffer. Tumor volumes and animal health were monitored and recorded twice weekly, a day prior to each injection.

Experimental for pancreatic NTX tumors: Mice then received twice weekly intraperitoneal dosing of 15 mg/kg irinotecan or 25 mg/kg gemcitabine, respectively, for a period of approximately 20 days before they were euthanized for tumor resection and cellular analysis.
Harvested tumors were then dissociated and constituent single cells were analyzed by flow cytometry.

As for `Nc1ccn([C@@H]2O[C@H](CO)[C@@H](O)C2(F)F)c(=O)n1` [gemcitabine], the “tumor volume (growth of treated tumors)” value with pancreatic NTX tumors (25 mg/kg intraperitoneal twice weekly, vs vehicle-treated tumors that continued to grow unabated, FIG. 25A) is “decreased in volume”. Also, in the assay with pancreatic NTX tumors (25 mg/kg twice weekly, flow cytometry of harvested tumors, vehicle vs treated, FIG. 25B), the “residual tumor cell marker phenotype (CD46 expression)” value was “enrichment for tumor cells expressing markers indicative of TIC”.
`CCc1c2c(nc3ccc(OC(=O)N4CCC(N5CCCCC5)CC4)cc13)-c1cc3c(c(=O)n1C2)COC(=O)[C@]3(O)CC` [irinotecan]: the “frequency of cells with TPC phenotype (CD46hi CD324+ CD66c-) among live human cells, treated vs saline-treated” value in the assay on colorectal NTX tumors (flow cytometry of harvested tumors, FIGS. 24B and 24C) was “more than 2.5 fold”. The “CD66c phenotype of residual cells among the CD46hi CD324+ population” value with colorectal NTX tumors (flow cytometry, in vehicle-treated tumors most residual cells were CD66c+, FIG. 24D) is “most residual cells were CD66c^−”.

For the origin of these results see patent publication US9778264B2, “Identification and enrichment of cell subpopulations” (STEM CENTRX, INC., priority 2010, dated 2017).
